Measurements published in patent US10722496B2, “2-iminobiotin for use in the treatment of brain cell injury” (Neurophyxia B.V., priority 2015, dated 2020).
Where “and” joins values, the source holds several entries; their conditions need not be identical. Identical values can stand only once.

Key:
[1] = Dose prediction simulations from covariate PK models; parameters: species or system human; Sim. AUCinf when dosing based on Crea0 from Table 6 / Sim. AUCinf when dosing based on eGFR: unit not given here
Description: Models were generated in order to determine the impact of dose adjustments and variability of AUC.
[…] and can be easily derived. (D=dose; CL=clearance)
An exploratory covariate analysis was performed looking at body weight, age, eGFR, SeCre, and Core temperature. The model used was as follows:
Dose correction for use at lower temperatures can be determined using the following equation: […]

[2] = system: 4VO rat model; test: Morris water maze after four-vessel occlusion (4VO); type: in vivo; conditions: for memory test, time spent in the right quadrant on day 32: 12 and 24 hours, mean±SD
Description: The rats were anesthetized using ketamine (90 mg/kg) and xylazine sodium ([…]), as described earlier (Meilin et al., 2014). The first cervical vertebrata was exposed and the vertebral arteries were permanently occluded by electrocauterization. The common carotid arteries were isolated through a ventral midline neck incision and lifted using a 4.0 silk suture ligature, placed around them.
Twenty-four hours post vertebral arterial occlusion, the animals were reanesthetized using isoflurane. The common carotid arteries were exposed and occluded using microaneurysm clips for 15 minutes. After removing the clips reperfusion occurred. The skin of the incision at the neck was sutured using 4-0 silk suture. During the operation animal's core temperature was monitored using a rectal probe (Model 400; YSI Inc., Yellow Springs, Ohio, USA) connected to a thermometer (Model 8402-00; Cole-Parmer Instrument Co. Ltd, London, UK). The ischemic insult was initiated when a rectal temperature of 37-38° C. was achieved, and this temperature was maintained throughout the procedure using a heating mattress.
During the acclimatization period rats were randomly assigned to experimental groups. The animals were subjected to 4VO per cage or one rat per cage was subjected to HI. Rats received either vehicle (normal saline at pH 3.8-4.0) or 2-IB (1.1 mg/kg, 3.3 mg/kg, 10 mg/kg and 30 mg/kg dissolved in 5 ml/kg normal saline at pH 3.8-4.0). Each dosing group was kept in separate cages to avoid cross-contamination by consuming stools during the study period. The experimental groups were as follows.
Tests were performed during day-time. Rats were introduced to a standardized 1.2 m-diameter pool filled with water for 120 seconds or until they located a platform hidden 1 cm below the water surface. Several visual cues were provided within the room in which the pool was located to allow rats to spatially navigate the water maze. […] Rats were allowed two attempts to find the hidden platform, and this learning test was performed over a period of 4 days (days 28-31). The memory test was performed on the fifth day (day 32), at which time the hidden platform was removed, and rats were placed in the pool for a single 60-second trial. The amount of time that each rat spent in the quadrant, where the hidden platform had previously been located, was recorded by an observer who was blinded to the experimental groups.
The Morris water maze was used to evaluate how well the rats remembered the location of the hidden platform, and whether they had learned to navigate towards the appropriate quadrant. The time that the rat spent in the right quadrant was measured. This was considered the primary outcome.
During the learning test the time to find a hidden platform in the water was calculated. Also the area under the curve (AUC) of the subsequent learning tests was calculated. These parameters were considered secondary outcomes.

With `N=C1N[C@H]2[C@H](CS[C@H]2CCCCC(=O)O)N1` [2-IB, 2-iminobiotin] the “Sim. AUCinf when dosing based on 4.8 mg for all” value (shortened to “Sim. AUCinf … for all”) ([1]; Table 8, covariate model with Crea0, individual patient (ID 1-8)) was 220 and 292 and 765 and 847 and 642 and 993 and 427 and 266, the “Sim. AUCinf when dosing based on Crea0 from Table 6” value ([1]; Table 8, individual patient (ID 1-8)) was 676 and 494 and 588 and 781 and 692 and 1070 and 722 and 327 and the “Sim. AUCinf … for all” value ([1]; Table 10, covariate model with eGFR, individual patient (ID 1-8)) was 306 and 302 and 814 and 873 and 484 and 856 and 472 and 269. The “Sim. AUCinf … for all” value ([1]; Table 10, Max of 8 patients) was 873, the “Sim. AUCinf when dosing based on eGFR” value ([1]; Table 10, Max of 8 patients) was 922 and the “Sim. AUCinf … for all” value ([1]; Table 10, Mean of 8 patients) was 547. The “Sim. AUCinf when dosing based on eGFR” value ([1]; Table 10, Mean of 8 patients) was 679, the “Sim. AUCinf … for all” value ([1]; Table 10, Median of 8 patients) was 478 and the “Sim. AUCinf when dosing based on eGFR” value ([1]; Table 10, Median of 8 patients) was 713. For the same compound, the “Sim. AUCinf … for all” value ([1]; Table 10, Min of 8 patients) was 269, the “Sim. AUCinf when dosing based on eGFR” value ([1]; Table 10, Min of 8 patients) was 415 and the “Sim. AUCinf when dosing based on eGFR” value ([1]; Table 10, individual patient (ID 1-8)) was 802 and 465 and 626 and 806 and 596 and 922 and 800 and 415. For the same compound, the “CL at 33° relative to the CL at 36°” value ([1]; given the same Crea0, temperature correction equation) was 37%, the “AUC of the learning test from day 28 until 31” value (from here on “AUC of the learning test”) ([2]; 1.1 mg/kg/dose s.c.) was 276±85 and the “memory test, time spent in the right quadrant on day 32” value (“memory test, time spent” for short) ([2]; 1.1 mg/kg/dose s.c. upon reperfusion) was 10.7 ± 4.4 s. For the same compound, the “AUC of the learning test” value ([2]; 3.3 mg/kg/dose s.c.) was 266±64, the “memory test, time spent” value ([2]; 3.3 mg/kg/dose s.c. upon reperfusion) was 12.7 ± 6.7 s and the “AUC of the learning test” value ([2]; 10 mg/kg/dose s.c.) was 297±79. For the same compound, the “memory test, time spent” value ([2]; 10 mg/kg/dose s.c. upon reperfusion) was 12.0 ± 7.3 s, the “AUC of the learning test” value ([2]; 30 mg/kg/dose s.c.) was 287±89 and the “memory test, time spent” value ([2]; 30 mg/kg/dose s.c. upon reperfusion) was 12.5 ± 6.0 s. The “learning test day 28 to day 31, time to find the hidden platform vs vehicle-treated rats” value ([2]; 1.1 (p<0.05), 3.3 (p<0.01) and 30 mg/kg/dose (p<0.05), Dunnett's post hoc) was “significant difference”.
